Data reported in patent US20250367283A1, “MEVALONATE PATHWAY INHIBITOR AS HIGHLY-EFFICIENT VACCINE ADJUVANT” (Tsinghua University, priority 2015, published 2025).
Read-outs that look alike come from different tables or passages of the source.

Columns and labels:
PR8 influenza virus = PR8 influenza virus challenge after HA1 immunization; assay type: in vivo, mice; details: 20 micrograms adjuvant with 5 micrograms HA1, intramuscular
Procedure: Method: 5 micrograms of hemagglutinin protein (HA1) in the PR8 influenza virus was added to phosphate buffer, 20 micrograms of simvastatin, 20 micrograms of TH-Z80, 20 micrograms of TH-Z93 and 20 micrograms of TH-Z145, respectively. And mice were injected intramuscularly for immunization on day 0, day 14 and day 21. Nasal mucosa of mice was inoculated with PR8 virus on day 28. And then the weight of the mice was weighed daily and the death of the mice was observed.

[1] = tested on: B lymphocytes, T lymphocytes, macrophages and dendritic cells in lymph nodes; assay: Recruitment of cells in lymph nodes after immunization; assay type: in vivo, mice; details: 24 hours after subcutaneous immunization, vs Ctrl and PBS
Procedure: Method: Following an similar procedure of example 1, OVA was used as antigen and three inhibitor compounds, simvastatin, TH-Z80, and TH-Z145 were added as adjuvants, respectively. The OVA antigen and adjuvant were mixed at 1:1 and used for immunizing mice by subcutaneous injection. 24 hours after immunization, inguinal lymph nodes ipsilateral to the immunization were removed and separated through a 100 mesh screen into single-cell suspension. Flow cytometry was used to determine changes of the proportions and numbers of B lymphocytes, T lymphocytes, macrophages and dendritic cells in lymph nodes. The marker of the B lymphocyte was B220, the marker of the T lymphocyte was CD3, the markers of the macrophage were CD11b and F4/80, and the marker of the dendritic cell was CD11c.

MDA-MB-231 cells = assay: MDA-MB-231 proliferation MTT test; assay type: cell-based, human; details: 72 hours
Procedure: • Drug dissolution: […] The prepared bisphosphonate stock solution was diluted with DMEM complete medium. The maximum concentration was 1 mM. The dilution was performed serially in a ratio of 1:3.2 with a total of 11 concentration gradients; a. MDA-MB-231 cells were digested the day before. Centrifugation was performed at 1000 rmp for 3 min. The cells were counted. The cells were seeded into a 96-well plate at 3000 cells/well in a volume of 100 μl per well and cultured for 14-16 h. It should be noted that the cell count should be accurate, and the amount of cells seeded per well should be consistent. The cell suspension can be gently shaken in the intermittence of plating, or a row of cells were plated and the cell suspension was pipetted gently with a pipette. The speed of pipetting into the 96-well plate with a pipette should not be too fast or too slow, in order to avoid uneven distribution of cells in the plate, affecting the experiments; the wells at the fringe of the 96-well plate will evaporate slightly faster and the concentration of the solution will change slightly faster. Under normal situation, the central 60 wells should be selected for stimulation. Also, the pipetted liquid should be prevented from creating bubbles. b. After the cells had adhered, the liquid in the 96-well plate was pipetted out and discarded. […] c. 72 hours after the action of drug, the prepared MTT solution (immediately before use, a certain amount of MTT powder was weighed and dissolved in PBS at 5 mg/ml, under dark, filter with 0.22 filter membrane) was added directly to each well with 20 μl per well and continued to culture for 4 hours; d. The filter paper (which can be replaced by an absorbent paper) was laid, and the plate was inverted gently (be careful to prevent the crystal in the well from dropping). After the liquid in the wells was removed, 150 μl of DMSO was added to dissolve the crystals, and the mixture was shaken thoroughly with a shaker for a period of time just to dissolve the crystals. The absorbance (OD value) of each well was measured at 570 nm with ELIASA. The mean value of blank control was calculated as OD Blank. OD value for each well=OD measured-OD Blank. ODNT mean value was calculated. […] Mean and standard error were then calculated. The mean and standard error of each group of drug concentration (uM) and corresponding drug inhibition rate were fitted by Graph Prism software to obtain the IC50 of the drug.

anti-OVA IgG = assay: Comparison with existing adjuvants: IgG titer after boost; assay type: in vivo, mice; details: 100 μg adjuvant, intramuscular, 7th day after third immunization
[2] = target: humanized farnesyl pyrophosphate synthase (HsFPPS) (Homo sapiens (Human), UniProt P14324); assay: In vitro HsFPPS enzyme activity assay; assay type: biochemical
Procedure: The measurement method is briefly described as follows: the expression of HsFPPS with 6 consecutive His at the N-terminus was induced in vitro, collected, and purified by Ni column. An in vitro HsFPPS enzyme activity assay was performed in a 96-well plate with 200 μl of solution per well. The buffer of the system was 25 mM HEPES, 2.5 mM MgCl2, pH 7.4. Using DMAPP and IPP as reaction substrates, the change of the UV value at a wavelength of 360 nm was monitored in real time in a phosphate lyase system. The ORIGIN 8.0 software was used to plot and fit. The IC50 values for the inhibition of FPPS by the TH-Z80 series of compounds were shown in the following table, in micromoles per liter (μM).
HsFPPs with 6 consecutive His at the N-terminus was induced to express in vitro, collected, and purified by Ni column. In vitro HsFPPs enzymatic activity assay was performed in a 96-well plate at 200 μl of solution per well. The buffer of the system was 25 mM HEPES, 2.5 mM MgCl2, pH 7.4. Using DMAPP and IPP as reaction substrates, the changes of UV at 360 nm were monitored in real-time in phosphate lyase system. ORIGIN 8.0 software was used to plot and fit.

[3] = tested on: anti-OVA IgM and IgG antibodies; assay: Rescue experiment of GGPP and GGOH on adjuvant activity; assay type: in vivo, mice; details: for effect of GGPP and GGOH on adjuvant effects: GGPP and GGOH added; for IgG and IgM antibody titers vs PBS control: without addition of GGPP or GGOH
Procedure: In particular, we investigated the effect of GGOH and GGPP on the adjuvant activity of simvastatin (HMG-COA reductase inhibitor), TH-Z93 (FPPS inhibitor), and TH-Z145 (GGPPS inhibitor).
Method: Simvastatin, TH-Z93 and TH-Z145 were formulated at a concentration of 10 mg/ml; the concentration of OVA antigen was 20 mg/ml; and GGOH and GGPP were formulated into a series of solutions at concentrations of 200 mg/ml, 100 mg/ml, 40 mg/ml and 20 mg/ml, respectively. For the experimental group, on the one hand, titers of antibodies were measured when immunization was performed without adding GGOH or GGPP while only mixing 10 μl of test compound and 5 μl of OVA antigen. On the other hand, titers of antibodies were measured when immunization was performed after adding GGOH or GGPP; specifically, 10 μl of test compound, 5 μl of OVA antigen and 5 μl of each concentration of GGOH or GGPP (total volume of 20 μl) were mixed and used for immunization in mice by injection at the sole of the right feet. Mice in the control group were treated with PBS and the antigen only, without addition of test compounds and GGOH or GGPP. On Day 7 and Day 14 after immunization, blood was taken from the mice's orbit, and 100 μl was taken for each mouse. The obtained blood was left at 4° C. overnight. The serum was separated, and titers of anti-OVA IgM and IgG antibodies in the serum were determined.

[4] = Example 15 table, read-out: HsFPPS (IC50/μM)
[5] = TH-Z80 series, DMAPP and IPP substrates, pH 7.4, read-out: IC50 for inhibition of FPPS

humanized farnesyl pyrophosphate synthase (HsFPPS), sequence (P14324 whole entry, looked up): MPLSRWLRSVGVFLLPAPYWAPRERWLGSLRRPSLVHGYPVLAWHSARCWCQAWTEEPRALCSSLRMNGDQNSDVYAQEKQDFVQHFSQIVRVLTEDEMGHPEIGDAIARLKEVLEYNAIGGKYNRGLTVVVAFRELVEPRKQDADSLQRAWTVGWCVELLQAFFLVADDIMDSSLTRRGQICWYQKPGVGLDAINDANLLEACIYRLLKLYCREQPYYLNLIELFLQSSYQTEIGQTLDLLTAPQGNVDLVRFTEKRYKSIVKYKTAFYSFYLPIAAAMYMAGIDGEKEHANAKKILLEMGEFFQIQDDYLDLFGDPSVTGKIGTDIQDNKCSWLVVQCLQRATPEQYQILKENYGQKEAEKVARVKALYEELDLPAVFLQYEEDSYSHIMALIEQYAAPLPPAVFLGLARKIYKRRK

| Compound | body weight and death after PR8 virus inoculation (PR8 influenza virus) | proportions and numbers of B lymphocytes, T lymphocytes, macrophages and dendritic cells in lymph nodes [1] | IC50 (MDA-MB-231 cells) [nM] | IgG antibody titer after boost vs PBS control (anti-OVA IgG) | IC50 [2, 4] [µM] | IC50 [2, 5] [µM] | effect of GGPP and GGOH on adjuvant effects [3] | IgG and IgM antibody titers vs PBS control [3] | IC50 ([2]; o-aminopyridine bisphosphonic acid compounds, read-out: IC50 (inhibition of FPPS)) [µM] |
| --- | --- | --- | --- | --- | --- | --- | --- | --- | --- |
| CCCCCCOc1ccc2c(c1)ncn2CC(O)(P(=O)(O)O)P(=O)(O)O [TH-Z80] | did not lose weight nor died | significantly increased | 75500 | significantly high titers | 0.11 | 0.11 |  |  |  |
| CCCCCCCCOc1ccc2c(c1)ncn2CC(O)(P(=O)(O)O)P(=O)(O)O [TH-Z81] |  |  | 59600 |  | 0.48 | 0.48 |  |  |  |
| CCCCCCOc1ccnc(NC(P(=O)(O)O)P(=O)(O)O)c1 [TH-Z93, (((4-(hexyloxy)pyridin-2-yl)amino)methylene)bisphosphonic acid] | did not lose weight nor died |  |  | significantly high titers |  |  | effectively inhibit adjuvant effects | significantly higher | 0.1 |
| CCCCCCCOc1ccc2c(c1)ncn2CC(O)(P(=O)(O)O)P(=O)(O)O [TH-Z152] |  |  | 428000 |  | 0.14 | 0.14 |  |  |  |
| CCCCCCCCCOc1ccc2c(c1)ncn2CC(O)(P(=O)(O)O)P(=O)(O)O [TH-Z153] |  |  | 234000 |  | 4.9 | 4.9 |  |  |  |
| CCC(C)(C)C(=O)O[C@H]1C[C@@H](C)C=C2C=C[C@H](C)[C@H](CC[C@@H]3C[C@@H](O)CC(=O)O3)[C@H]21 [simvastatin, reference compound] | did not lose weight nor died | significantly increased |  | significantly high titers |  |  | effectively inhibit adjuvant effects | significantly higher |  |
| (2-(3-(octyloxy)phenyl)ethane-1,1-diyl)bisphosphonic acid [TH-Z145] | did not lose weight nor died | significantly increased |  | significantly high titers |  |  | effectively inhibit adjuvant effects | significantly higher |  |
